Assay results as given in ChEMBL document CHEMBL1143537, “Discovery, synthesis and biological evaluation of novel glucokinase activators” (Bioorg Med Chem Lett, 2005).
pEC50: −log10 of the molar value.

Columns and labels:
[1] = molecular target: T1, Hexokinase-4 (Homo sapiens, UniProt P35557); test: Potency in Glucokinase activation assay
T1 sequence (P35557 whole entry): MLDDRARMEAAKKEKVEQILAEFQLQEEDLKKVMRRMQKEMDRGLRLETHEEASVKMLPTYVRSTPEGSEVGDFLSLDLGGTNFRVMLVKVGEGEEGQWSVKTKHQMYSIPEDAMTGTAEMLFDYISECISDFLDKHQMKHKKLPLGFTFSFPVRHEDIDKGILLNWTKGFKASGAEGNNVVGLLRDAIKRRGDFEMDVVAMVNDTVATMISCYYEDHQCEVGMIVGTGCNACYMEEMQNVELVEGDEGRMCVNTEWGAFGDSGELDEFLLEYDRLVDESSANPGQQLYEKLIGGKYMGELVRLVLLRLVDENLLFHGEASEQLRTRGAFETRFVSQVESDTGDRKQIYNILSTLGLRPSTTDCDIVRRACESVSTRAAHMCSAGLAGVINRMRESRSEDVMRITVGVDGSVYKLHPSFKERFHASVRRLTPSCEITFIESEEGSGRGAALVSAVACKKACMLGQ

[2] = Volume of distribution of the compound; type: ADME; details: rat; read-out: Activity
[3] = Half life value of the compound; type: ADME; details: rat
[4] = Clearance value of the compound; type: ADME, organism-based; details: rat, in vivo

SMILES: O=C(O)c1ccc(NC(=O)c2cc(OCc3ccccc3F)cc(OCc3ccccc3F)c2)nc1
- pEC50 [1]: 7.05

SMILES: CSc1ccc(OCc2ccccc2)c(NC(=O)c2ccc(C(=O)O)cn2)c1
- pEC50 [1]: < 5.00

SMILES: CC(C)Oc1cc(OCCc2ccncc2)cc(C(=O)Nc2ccc(C(=O)O)cn2)c1
- pEC50 [1]: 5.75

SMILES: O=C(O)c1ccc(OCc2cc(OCc3ccccc3)cc(OCc3ccccc3)c2)nc1
- pEC50 [1]: < 5.00

SMILES: O=C(O)c1ccc(NC(=O)c2cccc(OCc3ccccc3Cl)c2)nc1
- pEC50 [1]: 6.04

SMILES: O=C(O)c1ccc(CCc2cc(OCc3ccccc3)cc(OCc3ccccc3)c2)nc1
- pEC50 [1]: < 5.00

SMILES: CC(C)Oc1cc(OCCc2ccsc2)cc(C(=O)Nc2ccc(C(=O)O)cn2)c1
- Vd [2]: 0.3 L/kg
- half-life [3]: 54 min
- clearance [4]: 3.8 mL/min/kg

SMILES: CC(C)Oc1cc(OCC2CCCC2)cc(C(=O)Nc2ccc(C(=O)O)cn2)c1
- pEC50 [1]: 6.19

SMILES: CC(C)Oc1cc(OCCC2CCOCC2)cc(C(=O)Nc2ccc(C(=O)O)cn2)c1
- pEC50 [1]: 5.88

SMILES: O=C(O)c1ccc(NC(=O)c2cc(OCc3ccccc3)cc(OCc3ccccc3)c2)nc1
- pEC50 [1]: 6.40

SMILES: O=C(O)c1ccc(C(=O)Nc2cc(OCc3ccccc3)cc(OCc3ccccc3)c2)nc1
- pEC50 [1]: < 5.00

SMILES: CSc1ccc(OCc2ccccc2)c(C(=O)Nc2ccc(C(=O)O)cn2)c1
- pEC50 [1]: 5.37

SMILES: O=C(O)c1ccc(NC(=O)c2cccc(OCc3ccccc3Cl)c2OCc2ccccc2Cl)nc1
- pEC50 [1]: < 5.00

SMILES: CSc1ccc(OCc2ccccc2)c(/C=C/c2ccc(C(=O)O)cn2)c1
- pEC50 [1]: 5.49

SMILES: CC(C)COc1cc(OC(C)C)cc(C(=O)Nc2ccc(C(=O)O)cn2)c1
- pEC50 [1]: 6.24

SMILES: CC(C)Oc1cc(OCc2ccccc2F)cc(C(=O)Nc2ccc(C(=O)O)cn2)c1
- pEC50 [1]: 7.00

SMILES: CC(C)Oc1cc(OCCCc2ccccc2)cc(C(=O)Nc2ccc(C(=O)O)cn2)c1
- pEC50 [1]: 6.38

SMILES: CC(C)Oc1cc(OCCc2ccccc2)cc(C(=O)Nc2ccc(C(=O)O)cn2)c1
- pEC50 [1]: 6.89

SMILES: CC(C)Oc1cc(OCCc2cccnc2)cc(C(=O)Nc2ccc(C(=O)O)cn2)c1
- pEC50 [1]: 5.90

SMILES: O=C(O)c1ccc(NC(=O)c2ccccc2OCc2ccccc2)nc1
- pEC50 [1]: < 5.00

SMILES: COc1cc(OC)cc(OCc2ccc(C(=O)O)cn2)c1
- pEC50 [1]: < 5.00

SMILES: CC(C)Oc1cc(OCc2ccccc2)cc(C(=O)Nc2ccc(C(=O)O)cn2)c1
- pEC50 [1]: 6.54

SMILES: CC(C)Oc1cc(OCCC2CCCC2)cc(C(=O)Nc2ccc(C(=O)O)cn2)c1
- pEC50 [1]: 6.77
